Reference: patent publication US8222278B2, “Treatment of attention-deficit/hyperactivity disorder” (Abbott Laboratories, priority 2008, dated 2012)

Test system: adults with ADHD
Test: Study A: treatment-emergent adverse events (safety dataset)

## Clc1cc(N2C[C@@H]3CN[C@@H]3C2)cnc1Cl [ABT-894, 3-(5,6-Dichloro-pyridin-3-yl)-1S,5S-3,6-diazabicyclo[3.2.0]heptane]
ABT-894 4 mg BID, N = 46
  Headache, number of subjects: 4 subjects
  Lethargy, % of subjects: (0) %
  Lethargy, number of subjects: 0 subjects
  Muscle Strain, % of subjects: (0) %
  Muscle Strain, number of subjects: 0 subjects
  Nasal congestion, % of subjects: (6.5) %
  Nasal congestion, number of subjects: 3 subjects
  Nausea, % of subjects: (8.7) %
  Nausea, number of subjects: 4 subjects
  Parathesia, % of subjects: (0) %
  Parathesia, number of subjects: 0 subjects
  Sleep disturbances, % of subjects: (4.3) %
  Sleep disturbances, number of subjects: 2 subjects
  Somnolence, % of subjects: (4.3) %
  Somnolence, number of subjects: 2 subjects
  Upper RTI, % of subjects: (0) %
  Upper RTI, number of subjects: 0 subjects
  Vomiting, % of subjects: (2.2) %
  Vomiting, number of subjects: 1 subjects
ABT-894 4 mg QD, N = 40
  Any Adverse Event, % of subjects: (65.0) %
  Any Adverse Event, number of subjects: 26 subjects
  Decreased appetite, % of subjects: (5.0) %
  Decreased appetite, number of subjects: 2 subjects
  Diarrhea, % of subjects: (7.5) %
  Diarrhea, number of subjects: 3 subjects
  Dizziness, % of subjects: (10.0) %
  Dizziness, number of subjects: 4 subjects
  Dry mouth, % of subjects: (0) %
  Dry mouth, number of subjects: 0 subjects
  Fatigue, % of subjects: (5.0) %
  Fatigue, number of subjects: 2 subjects
  Feeling hot and cold, % of subjects: (0) %
  Feeling hot and cold, number of subjects: 0 subjects
  Feeling jittery, % of subjects: (0) %
  Feeling jittery, number of subjects: 0 subjects
  Headache, % of subjects: (12.5) %
  Headache, number of subjects: 5 subjects
  Lethargy, % of subjects: (2.5) %
  Lethargy, number of subjects: 1 subjects
  Muscle Strain, % of subjects: (0) %
  Muscle Strain, number of subjects: 0 subjects
  Nasal congestion, % of subjects: (0) %
  Nasal congestion, number of subjects: 0 subjects
  Nausea, % of subjects: (22.5) %
  Nausea, number of subjects: 9 subjects
  Parathesia, % of subjects: (0) %
  Parathesia, number of subjects: 0 subjects
  Sleep disturbances, % of subjects: (7.5) %
  Sleep disturbances, number of subjects: 3 subjects
  Somnolence, % of subjects: (0) %
  Somnolence, number of subjects: 0 subjects
  Upper RTI, % of subjects: (7.5) %
  Upper RTI, number of subjects: 3 subjects
  Vomiting, % of subjects: (10.0) %
  Vomiting, number of subjects: 4 subjects
Total ABT-894, N = 174
  Any Adverse Event, number of subjects: 109 subjects
  Decreased appetite, % of subjects: (1.1) %
  Decreased appetite, number of subjects: 2 subjects
  Diarrhea, % of subjects: (3.4) %
  Diarrhea, number of subjects: 6 subjects
  Dizziness, % of subjects: (6.3) %
  Dizziness, number of subjects: 11 subjects
  Dry mouth, % of subjects: (1.7) %
  Dry mouth, number of subjects: 3 subjects
  Fatigue, % of subjects: (5.2) %
  Fatigue, number of subjects: 9 subjects
  Feeling hot and cold, % of subjects: (0) %
  Feeling hot and cold, number of subjects: 0 subjects
  Feeling jittery, % of subjects: (0) %
  Feeling jittery, number of subjects: 0 subjects
  Headache, % of subjects: (10.3) %
  Headache, number of subjects: 18 subjects
  Lethargy, % of subjects: (0.6) %
  Lethargy, number of subjects: 1 subjects
  Muscle Strain, % of subjects: (1.7) %
  Muscle Strain, number of subjects: 3 subjects
  Nasal congestion, % of subjects: (1.7) %
  Nasal congestion, number of subjects: 3 subjects
  Nausea, number of subjects: 21 subjects
  Parathesia, % of subjects: (0) %
  Parathesia, number of subjects: 0 subjects
  Sleep disturbances, % of subjects: (7.5) %
  Sleep disturbances, number of subjects: 13 subjects
  Somnolence, % of subjects: (4.6) %
  Somnolence, number of subjects: 8 subjects
  Upper RTI, % of subjects: (4.0) %
  Upper RTI, number of subjects: 7 subjects
  Vomiting, % of subjects: (3.4) %
  Vomiting, number of subjects: 6 subjects
Adults with ADHD, all doses
  Safety and tolerability: generally was safe and well tolerated
